Laboratory results reported in PubChem BioAssay (NCI).
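A five-concentration, 48-hour dose response in 96-well plates underlies each endpoint, interpolated linearly between surrounding concentrations. The concentration for 50% growth inhibition is given as GI50. TGI marks complete inhibition of growth.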 Where a SMILES comes first, the peptide text is derived from it. Bridges are numbered along the chain shown (N, C = ends).

How the values were obtained:
Experiment in all cases: NCI anticancer screen, dose series, 48 h
TK-10 renal = tested on: TK-10 renal
MDA-MB-231 breast = tested on: MDA-MB-231 breast
UACC-257 melanoma = tested on: UACC-257 melanoma
SF-268 CNS = tested on: SF-268 CNS
OVCAR-5 ovarian = tested on: OVCAR-5 ovarian
U251 CNS = tested on: U251 CNS
EKVX NSCLC = tested on: EKVX NSCLC
HL-60(TB) leukemia = tested on: HL-60(TB) leukemia
HS 578T breast = tested on: HS 578T breast
HOP-92 NSCLC = tested on: HOP-92 NSCLC

SMILES | TGI (TK-10 renal) [µM] | TGI (MDA-MB-231 breast) [µM] | TGI (UACC-257 melanoma) [µM] | TGI (SF-268 CNS) [µM] | TGI (OVCAR-5 ovarian) [µM] | TGI (U251 CNS) [µM] | TGI (EKVX NSCLC) [µM] | TGI (HL-60(TB) leukemia) [µM] | TGI (HS 578T breast) [µM] | TGI (HOP-92 NSCLC) [µM] | GI50 (TK-10 renal) [µM] | GI50 (HOP-92 NSCLC) [µM] | GI50 (OVCAR-5 ovarian) [µM] | GI50 (HL-60(TB) leukemia) [µM] | GI50 (HS 578T breast) [µM]
Cc1cc2ccccc2n2c1nc1ccc(O)cc12 | > 10 | > 10 | > 10 | > 10 | > 10 | > 10 | > 10 | > 10 | > 10 |  |  |  |  |  | 
CC1(C)Cc2ccccc2C(C)(Cl)C(=O)N1 (stereo not drawn) | > 10 | > 10 | > 10 | > 10 | > 10 | > 10 | > 10 | > 10 |  | > 10 |  |  |  |  | 
Cc1noc(-c2ccc(C(=O)O)[nH]2)c1Br | > 100 | > 100 | > 100 | > 100 | > 100 | > 100 | > 100 |  | > 100 | 84.3 |  |  |  |  | 
C/C(N=NS(=O)(=O)c1c(C)cc(C)cc1C)=C1\C=CC=CN1O | > 100 |  | > 100 | > 100 | > 100 | > 100 | > 100 | > 100 |  | > 100 |  |  |  |  | 
O=Cc1c2c(cc3c1CC1(C3)Cc3cc4c(c(C=O)c3C1)CCC4)CCC2 | 98.8 | 70.1 | > 100 |  | > 100 | 38.4 | > 100 | 55.7 | 80.5 | 56.5 |  |  |  |  | 
COc1cccc(C2C(C#N)=C(N)Oc3cc(OCCCCCC[P+](c4ccccc4)(c4ccccc4)c4ccccc4)ccc32)c1 (stereo not drawn) | 2.99 |  |  |  | 3.15 |  |  | 0.738 | 2.78 | 0.912 | 1.46 | 0.23 | 1.35 | 0.263 | 0.608
COc1ccc(NCn2nc(CCCCCCCCc3nn(CNc4ccc(OC)cc4)c(=S)o3)oc2=S)cc1 | > 100 | > 100 | > 100 | > 100 | > 100 | > 100 | > 100 |  |  | > 100 |  |  |  |  | 
COC(=O)c1c(CC(=O)OC(C)C)cc2n(c1=O)Cc1c-2nc2ccccc2c1OC | > 100 |  | > 100 | > 100 | > 100 | > 100 | > 100 | > 100 |  | > 100 |  |  |  |  | 
C(=Nc1ccc(-c2nc3ccccc3s2)cc1)c1cccs1 | 78 |  | > 100 | > 100 | > 100 | > 100 | > 100 | 0.0298 | > 100 | 90.7 |  |  |  |  | 
O=c1cc(-c2ccccc2)oc2cc(OCCCCCCCCCCOc3ccc4c(=O)cc(-c5ccccc5)oc4c3)ccc12 |  |  | > 100 |  | > 100 | > 100 | > 100 | > 100 |  | > 100 |  |  |  |  | 
C/C(=N\Nc1nc2cc(F)ccc2s1)c1ccccn1 |  | > 45.1 | > 24.4 | 1.65 | 50.1 | > 33.3 |  |  |  | 11.5 |  |  |  |  | 
CCOC(=O)C1=C(N2CCCC2)C(=O)C(C(=O)OCC)C1 (stereo not drawn) | > 100 | > 100 | > 100 | > 100 | > 100 | > 100 | > 100 |  |  | > 100 |  |  |  |  | 
Cc1ccc(N2Cc3c(ccc4ccccc34)OP2(=S)N2CCCC2)cc1 (stereo not drawn) |  |  | > 100 | > 100 | > 100 | > 100 | > 100 | > 100 |  | > 100 |  |  |  |  | 
CC(=O)c1c(-c2ccco2)c(C#N)c(=S)n(C2OC(CO)C(O)C(O)C2O)c1C (stereo not drawn) | > 100 | > 100 | > 100 | > 100 | > 100 | > 100 | > 100 | > 100 | > 100 |  |  |  |  |  | 
O=C(O)C12C=CC(C1)c1ccccc12 (stereo not drawn) | > 100 |  | > 100 | > 100 | > 100 | > 100 |  | > 100 |  | > 100 |  |  |  |  | 
C=C1C(=O)OC2C[C@@]3(C)CCCC(=C)C3CC12 (stereo partly drawn) | 23.5 |  | 22 | 28.2 | 33.6 | 21.7 | 31.5 |  |  | 14.6 |  |  |  |  | 
COC(=O)C1CCC(=O)NCCCCC(NC(=O)C(N)CC(=O)O)C(=O)N1 (stereo not drawn) (H-Asp-Lys-Glu-OMe; lactam 2-3; configuration not given here) | > 100 | > 100 | > 100 | > 100 | > 100 | > 100 | > 100 | > 100 | > 100 |  |  |  |  |  | 
CN1COCN=C1NC#N |  |  | > 100 | > 100 | > 100 |  | > 100 | > 100 |  |  |  |  |  |  | 
NCCCNCCSP(=O)(O)O |  |  | > 750 | > 750 | > 750 | > 750 | > 750 | > 721 |  | > 750 |  |  |  |  | 
Cc1cc2ccccc2oc(=O)/c1=N\Nc1ccccc1 |  | 77.9 | > 100 |  | > 100 | > 100 | > 100 | > 100 |  | > 100 |  |  |  |  | 
O=Cn1c2ccccc2c2ccccc21 | > 100 |  | > 100 | > 100 | > 100 | > 100 | > 100 | > 100 |  | > 100 |  |  |  |  | 
COc1ccc(/C=C/C(=O)c2cc(CN(C)C)c(O)c(CN(C)C)c2)cc1 | > 100 | 69.6 | 38.8 | > 100 | > 100 | > 100 | > 100 | 54.5 | > 100 |  |  |  |  |  | 
CC(C)=CCNc1ncnc2c1ncn2CCC(=O)O | > 100 | > 100 |  | > 100 | > 100 | > 100 |  | > 100 | > 100 | > 100 |  |  |  |  | 
COc1ccc(Cn2c(=O)c(OS(=O)(=O)C(F)(F)F)c(C)c3cc4ccccc4cc32)cc1 | > 100 | > 100 | > 100 | > 100 | > 100 | > 100 | > 100 | > 100 | > 100 |  |  |  |  |  | 
C=C1c2nc3ccccc3n2C=C(c2ccccc2)N1c1ccc(C)cc1 | > 100 | > 100 | > 100 |  | > 100 | > 100 | > 100 |  |  | > 100 |  |  |  |  | 
